Results as given in patent US10065990B2, “Cyclic peptide compound, and preparation method, pharmaceutical composition and use thereof” (HANGZHOU GUANYU BIO-MEDICAL CO., LTD, priority 2013, dated 2018).
Like-named read-outs stand apart in the source and are kept apart here.

Tests used:
HDAC7 = target: T1, HDAC7 (Homo sapiens, UniProt Q8WUI4); assay: HDAC biochemical activity measurement (fluorescent substrate deacetylation);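 also: fluorogenic deacetylation assay using acetyl-lysine substrate at 20 µM, enzyme and compound incubated 30 min at 37 °C, then developer added, fluorescence read at 360/460 nm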; settings: HDAC7; 37° C. 30 minutes
T1 sequence (Q8WUI4 1-952): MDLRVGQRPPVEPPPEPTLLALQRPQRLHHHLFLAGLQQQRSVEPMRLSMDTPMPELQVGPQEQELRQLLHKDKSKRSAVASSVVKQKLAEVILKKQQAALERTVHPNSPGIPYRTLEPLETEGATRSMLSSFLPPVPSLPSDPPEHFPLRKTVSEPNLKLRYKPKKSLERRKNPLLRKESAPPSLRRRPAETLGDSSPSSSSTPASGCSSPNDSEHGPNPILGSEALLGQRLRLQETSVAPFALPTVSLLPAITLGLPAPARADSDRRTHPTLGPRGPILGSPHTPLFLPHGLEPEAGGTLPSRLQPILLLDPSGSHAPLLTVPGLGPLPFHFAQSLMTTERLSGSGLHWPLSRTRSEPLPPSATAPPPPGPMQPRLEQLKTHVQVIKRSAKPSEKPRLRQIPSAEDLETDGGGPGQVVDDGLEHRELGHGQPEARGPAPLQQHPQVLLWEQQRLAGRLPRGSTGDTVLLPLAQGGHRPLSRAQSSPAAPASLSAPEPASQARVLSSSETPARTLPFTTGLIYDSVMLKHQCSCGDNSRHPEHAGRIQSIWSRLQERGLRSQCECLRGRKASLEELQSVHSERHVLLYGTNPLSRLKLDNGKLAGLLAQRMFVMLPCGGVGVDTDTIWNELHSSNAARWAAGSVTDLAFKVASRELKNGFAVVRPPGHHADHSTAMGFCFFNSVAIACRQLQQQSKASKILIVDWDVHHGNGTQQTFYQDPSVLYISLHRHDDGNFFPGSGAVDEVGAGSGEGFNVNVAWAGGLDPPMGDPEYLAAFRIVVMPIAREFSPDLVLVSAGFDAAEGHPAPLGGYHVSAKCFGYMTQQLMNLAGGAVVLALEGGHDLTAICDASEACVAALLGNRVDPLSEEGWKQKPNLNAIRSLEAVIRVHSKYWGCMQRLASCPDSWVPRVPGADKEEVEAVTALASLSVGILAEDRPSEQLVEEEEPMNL

[1] = test system: A549 (human lung cancer cells); assay: MTT cancer cell growth inhibition; format: cell-based; settings: Homo sapiens, A549, 72 h, A549 cells, MTT, 72 hours incubation; read-out: GI50 A54
How it was run: (§1)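 Cells seeded at 1500/well in DMEM or RPMI 1640 with 10% FBS, incubated overnight, then exposed to compound at 10^−5 to 10^−10 M final in triplicate for 72 h at 37° C, 5% CO2. MTT added for 4 h, formazan dissolved in DMSO, absorbance read at 570 nm; GI50 derived from viability.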

[2] = test system: MDA-MB-231 (breast cancer cells); assay: MTT cancer cell growth inhibition; format: cell-based
How it was run: as §1

[3] = test system: U937 (human leukemia cells); assay: MTT cancer cell growth inhibition; format: cell-based; settings: Homo sapiens, U-937, 72 h, U937 cells, MTT, 72 hours incubation; read-out: GI50 U93
How it was run: as §1

[4] = test system: MOLT-4 (human acute lymphoblastic leukemia cells); assay: MTT cancer cell growth inhibition; format: cell-based; settings: MOLT-4 cells, MTT, 72 hours incubation, read-out: GI50 Mol
How it was run: as §1

[5] = test system: HCC827 (human non-small cell lung cancer cells); assay: MTT cancer cell growth inhibition; format: cell-based; settings: MTT, 72 hours incubation, HCC827 cells, read-out: GI50 HCC827
How it was run: as §1

[6] = test system: lncap (prostate cancer cells); assay: MTT cancer cell growth inhibition; format: cell-based; settings: lncap cells, MTT, 72 hours incubation, read-out: GI50 lnca
How it was run: as §1

[7] = test system: BGC-823 (human gastric cancer cells); assay: MTT cancer cell growth inhibition; format: cell-based; settings: Homo sapiens, BGC-823, 72 h, BGC-823 cells, MTT, 72 hours incubation; read-out: GI50 BG
How it was run: as §1

[8] = test system: KBM5-T315I (human chronic myelogenous leukemia); assay: MTT cancer cell growth inhibition; format: cell-based; settings: Homo sapiens, 72 h, MTT, 72 hours incubation, KBM5-T315I cells; read-out: GI50 KBM5-T315I
How it was run: as §1

[9] = test system: PANC-1 (Pac-1, human pancreatic cancer cells); assay: MTT cancer cell growth inhibition; format: cell-based; settings: PANC-1 cells, MTT, 72 hours incubation, read-out: GI50 PAN
How it was run: as §1

[10] = test system: Huh-7 (human hepatoma cells); assay: MTT cancer cell growth inhibition; format: cell-based; settings: Homo sapiens, Huh-7, 72 h, MTT, 72 hours incubation, Huh-7 cells; read-out: GI50 Huh-7
How it was run: as §1

[11] = test system: KBM-5 (human chronic myelogenous leukemia); assay: MTT cancer cell growth inhibition; format: cell-based; settings: MTT, 72 hours incubation, KBM-5 cells, read-out: GI50 KBM-5
How it was run: as §1

[12] = test system: Hela (human cervical cancer cells); assay: MTT cancer cell growth inhibition; format: cell-based; settings: Hela cells, MTT, 72 hours incubation, read-out: GI50 Hela
How it was run: as §1

[13] = test system: MCF-7 (human breast cancer cells); assay: MTT cancer cell growth inhibition; format: cell-based; settings: Homo sapiens, MCF7, 72 h, MCF-7 cells, 72 hours incubation, read-out: GI50 MCF
How it was run: as §1

[14] = test system: DU145 (human prostate cancer cells); assay: MTT cancer cell growth inhibition; format: cell-based; settings: Homo sapiens, DU-145, 72 h, DU145 cells, MTT, 72 hours incubation; read-out: GI50 Du1
How it was run: as §1

[15] = test system: N-87 (human gastric cancer cells); assay: MTT cancer cell growth inhibition; format: cell-based; settings: Homo sapiens, 72 h, MTT, 72 hours incubation, N-87 cells; read-out: GI50 N-87
How it was run: as §1

[16] = test system: SGC-7901 (human gastric cancer cells); assay: MTT cancer cell growth inhibition; format: cell-based; settings: MTT, 72 hours incubation, SGC-7901 cells, read-out: GI50 SGC-7901
How it was run: as §1

[17] = test system: H1975 (non-small cell lung adenocarcinoma); assay: MTT cancer cell growth inhibition; format: cell-based; settings: MTT, 72 hours incubation, H1975 cells, read-out: GI50 H1975
How it was run: as §1

[18] = test system: Bel-7402 (human hepatoma cells); assay: MTT cancer cell growth inhibition; format: cell-based; settings: MTT, 72 hours incubation, Bel-7402 cells, read-out: GI50 Bel-7402
How it was run: as §1

[19] = test system: K562 (human leukemia cells); assay: MTT cancer cell growth inhibition; format: cell-based; settings: Homo sapiens, K562, 72 h, MTT, 72 hours incubation, K562 cells; read-out: GI50 K562
How it was run: as §1

[20] = test system: HT1080 (human fibrosarcoma cells); assay: MTT cancer cell growth inhibition; format: cell-based; settings: HT1080 cells, MTT, 72 hours incubation, read-out: GI50 HT1
How it was run: as §1

[21] = Homo sapiens, MDA-MB-231, 72 h, read-out: GI50 MDA-MB-231, MTT, 72 hours incubation, MDA-MB-231 cells

Structure (SMILES) | IC50 HDAC7 (HDAC7) | GI50 [1] [µM] | GI50 [2, 21] [µM] | GI50 [3] [µM] | GI50 ([4]; Homo sapiens, MOLT-4, 72 h) [µM] | GI50 ([5]; Homo sapiens, HCC827, 72 h) [µM] | GI50 ([6]; Homo sapiens, LNCaP, 72 h) [µM] | GI50 [7] [µM] | GI50 [8] [µM] | GI50 ([9]; Homo sapiens, PANC-1, 72 h) [µM] | GI50 [10] [µM] | GI50 ([11]; Homo sapiens, KBM5, 72 h) [µM] | GI50 ([12]; Homo sapiens, HeLa, 72 h) [µM] | GI50 [13] [µM] | GI50 [14] [µM] | GI50 [15] [µM] | GI50 ([16]; Homo sapiens, SGC-7901, 72 h) [µM] | GI50 ([17]; Homo sapiens, NCI-H1975, 72 h) [µM] | GI50 ([18]; Homo sapiens, Bel-7402, 72 h) [µM] | GI50 [19] [µM] | other results
C/C=C1\NC(=O)c2cc(SC)cc(n2)CNC(=O)C[C@@H](/C=C/CCSC(C)=O)OC(=O)[C@H](C(C)C)NC1=O [Compound 166] | no activity | 0.01 | 0.017 | 0.03 | 0.03 | 0.031 | 0.07 | 0.07 | 0.053 | 0.02 | 0.056 | 0.05 | 0.05 | 0.06 | 0.06 | 0.073 | 0.042 | 0.026 | 0.068 | 0.046 | GI50 ([20]; Homo sapiens, HT-1080, 72 h): 0.08 µM
C/C=C1\NC(=O)c2ccc(SC)c(n2)CNC(=O)C[C@@H](/C=C/CCSC(C)=O)OC(=O)[C@H](C(C)C)NC1=O [Compound 167] | no activity | 0.03 | – | 0.02 | – | – | – | 0.04 | 0.033 | – | 0.029 | – | – | 0.03 | 0.04 | 0.042 | – | – | – | 0.045 | GI50 ([2]; read-out: GI50 MDA-MB-231, MTT, 72 hours incubation, MDA-MB-231 cells): 0.091 µM; GI50 [4]: 0.02 µM; GI50 [5]: 0.028 µM; GI50 [6]: 0.06 µM; GI50 [9]: 0.07 µM; GI50 [11]: 0.014 µM; GI50 [12]: 0.04 µM; GI50 [16]: 0.097 µM; GI50 [17]: 0.043 µM; GI50 [18]: 0.075 µM; GI50 [20]: 0.1 µM
C/C=C1\NC(=O)c2ccc(SC)c(n2)CNC(=O)C[C@@H](/C=C/CCSC=O)OC(=O)[C@H](C(C)C)NC1=O [Compound 170] | no activity | 0.06 | 0.038 | 0.09 | 0.03 | 0.096 | 0.07 | 0.02 | 0.057 | 0.05 | 0.088 | 0.049 | 0.03 | 0.06 | 0.02 | 0.062 | 0.037 | 0.026 | 0.043 | 0.037 | GI50 ([20]; Homo sapiens, HT-1080, 72 h): 0.05 µM
C/C=C1\NC(=O)c2cc(SC)cc(n2)CNC(=O)C[C@@H](/C=C/CCSC(=O)CCCCCCC)OC(=O)[C@H](CC)NC1=O [Compound 172] | no activity | 0.03 | 0.078 | 0.04 | 0.02 | 0.032 | 0.02 | 0.06 | 0.041 | 0.08 | 0.023 | 0.035 | 0.05 | 0.06 | 0.04 | 0.084 | 0.031 | 0.045 | 0.073 | 0.026 | GI50 ([20]; Homo sapiens, HT-1080, 72 h): 0.06 µM
